Common to all, as to format: cell-based
Data set [1] concerns rat endothelial cerebral cells. The data set can be described thus: Aβ25-35 peptide toxicity, LDH release from rat endothelial cerebral cells. The following applies: FIG. 1; for Protective effect against beta-amyloid peptide toxicity on LDH release (prevention of Aβ25-35 intoxication): Aβ25-35 30 μM, 3 days, drug added 1 hour before; for Spontaneous cell death in the culture medium: rat endothelial cerebral cells, LDH release. How it is done: Primo culture of rat endothelial cerebral cells (Vect-Horus SAS, Marseille) is cultivated on passage 0. At confluence, endothelial cells are dissociated with trypsin EDTA (Pan Biotech Ref: P10-023100). Cells are seeded at a density of 25 000 cells/well in 96 well-plates (wells are coated with 30 μl of type I rat collagen at 1.5 mg/ml, Vect-Horus SAS, Marseille) and are cultured in MCBD 131 medium (M−131-500, Invitrogen) supplemented with 1% of microvascular growth supplement (MVGS, S-005-25, Invitrogen). Cells are cultured at 37° C. in a humidified air (95%)/CO2(5%) atmosphere. Half of the medium is changed every other day with fresh medium. After 4 days, drugs are added to the cell culture medium, at different concentrations, solved in DMSO 0.1% or water.
Cells are then intoxicated with 30 μM of β-amyloid (25-35; Sigma) together with drugs in the same culture medium. Cells are then intoxicated during 3 days.
For each culture, after 3 days of intoxication, the supernatant is collected and analyzed with Cytotoxicity Detection Kit (LDH, Roche Applied Sciences). This colorimetric assay for the quantification of cell death is based on the measurement of lactate dehydrogenase (LDH) activity released from the cytosol of damaged cells into the supernatant. The optic density (DO) is assessed by spectrophotometer at 492 nm wavelength by a multiscan apparatus (Thermo, Ref Ascent).
Results presented in FIG. 1 are extracted from two independent cultures, 6 wells per condition. All values are expressed as mean±s.e.m. A bilateral Student's t test analysis is performed on raw data. Results are expressed in percentage of cell viability, compared to the control (vehicle).
Drugs are incubated with rat primary cerebral endothelial cells one hour before Aβ25-35 30 μM intoxication that lasts 3 days.
Three days after this incubation, LDH release in the culture medium is quantified, reflecting the level of cell death.

In data set [2] the test system is rat primary cortical cells. The data set can be described thus: human Aβ1-42 toxicity, LDH release in rat primary cortical neurons. Particulars: Aβ1-42 10 μM 24 h, 1 hr pre-treatment; FIG. 3. A general note: LDH leaks from cells whose membrane has failed.
Method: Primary rat cortical neurons are cultured as described previously.
Briefly, Aβ1-42 peptide was reconstituted in define culture medium at 40 μM (mother solution) and was slowly shaked at +37° C. for 3 days in dark. The control medium was prepared in the same conditions.
After 10 days of neuron culture, drug was solved in culture medium (+0.1% DMSO) and then pre-incubated with neurons for 1 hour before the Aβ1-42 application (in a final volume per culture well of 100 μl). One hour after drug incubation, 100 μl of Aβ1-42 peptide was added to a final concentration of 10 μM diluted in presence of drug, in order to avoid further drug dilutions. Cortical neurons were intoxicated for 24 hours. Three separate cultures were performed per condition, 6 wells per condition.
BDNF (50 ng/ml) and Estradiol-β (100 and 150 nM) were used as positive control and reference compounds respectively.
The following conditions were assessed: • 1 CONTROL PLAQUE: 12 wells/condition • Negative Control: medium alone+0.1% DMSO • Intoxication: amyloid-β1-42 (10 μM) for 24 h • Positive control: BDNF (50 ng/ml) 1 hr followed by amyloid-β1-42 (10 μM) for 24 h • Reference compound: Estradiol (150 nM) 1 hr followed by amyloid-β1-42 (10 μM) for 24 h. • DRUG PLATE: 6 wells/condition • Negative Control: medium alone+0.1% DMSO • Intoxication: amyloid-β1-42 (10 μM) for 24 h • Drug 1: Drug 1-1 hr followed by amyloid-β1-42(10 μM) for 24 h • Drug 2: Drug 2-1 hr followed by amyloid-β1-42(10 μM) for 24 h Lactate Dehydrogenase (LDH) Activity Assay
This colorimetric assay for the quantification of cell toxicity is based on the measurement of lactate dehydrogenase (LDH) activity released from the cytosol of dying cells into the supernatant.
All values are expressed as mean±s.e.mean of the 3 cultures (n=6 per condition). Statistic analyses were done on the different conditions (ANOVA followed by the Dunnett's test when it was allowed, Statviewi software version 5.0).
Data set [3] relates to Human Brain Microvascular Endothelial Cells (HBMEC). The data set can be described thus: human Aβ1-42 injury in HBMEC, total length of capillary network. Particulars: for Effect on intoxication: total length of capillary network in beta-amyloid intoxicated HBMEC cultures: Aβ1-42 2.5 μM, combination versus each drug alone at the same concentrations, FIG. 4-6; for Prevention of Aβ1-42 intoxication in HBMEC (capillary network): drug pretreatment, FIG. 2B, 2C. How it is done:
Human brain microvascular endothelial cerebral cells (HBMEC, ScienCell Ref: 1000, frozen at passage 10) were rapidly thawed in a waterbath at +37° C.
The control medium was prepared in the same conditions.
After 3 days, this human amyloid peptide was used on HBMEC at 2.5 μM diluted in control medium (optimal incubation time). The Aβ1-42 peptide was added 2 hours after HBMEC seeding on matrigel for 18 hours incubation.
Capillary Network Quantification
Per well, 2 pictures with 4× lens were taken using InCell Analyzer™ 1000 (GE Healthcare) in light transmission. All images were taken in the same conditions. Analysis of the angiogenesis networks was done using Developer software (GE Healthcare). The total length of capillary network was assessed.
All values are expressed as mean±s.e.mean of the 3 cultures (n=6 per condition). Statistic analyses were done on the different conditions performing an ANOVA followed by the Dunnett's test when it was allowed (Statview software version 5.0). The values (as %) inserted on the graphs show the amyloid toxicity evolution. Indeed, the amyloid toxicity was taken as the 100% and the test compound effect was calculated as a % of this amyloid toxicity.

Regarding `NCC(CC(=O)O)c1ccc(Cl)cc1` (stereo not drawn) [Baclofen (−), Baclofen], in data set [1], the “Protective effect against beta-amyloid peptide toxicity on LDH release (prevention of Aβ25-35 intoxication)” value (shortened to “Protective effect”) is “significantly prevented”.

On to `Cc1oncc1C(=O)Nc1ccc(C(F)(F)F)cc1` [Leflunomide], for which, in data set [1], the “Protective effect” value is given as “significantly prevented” and the “Spontaneous cell death in the culture medium” value is recorded as “decrease spontaneous cell death”. Also, the “Change of LDH release (Aβ1-42 amyloid injury) in rat primary cortical cells” value (“Change of LDH release” below) in data set [2] was −62%.

Consider `Cc1noc(NS(=O)(=O)c2ccc(N)cc2)c1C` [Sulfisoxazole], for which the “Protective effect” value in data set [1] is on record as “significantly prevented”. Moreover, the “Effect on intoxication: total length of capillary network in beta-amyloid intoxicated HBMEC cultures” value (“Effect on intoxication: total length” for short) in data set [3] is recorded as “no significant effect”.

In the case of `NCC(CC(=O)O)c1ccc(Cl)cc1` (racemic) [Baclofen], in data set [3], the “Effect on intoxication: total length” value is on record as “no significant effect” and the “Prevention of Aβ1-42 intoxication in HBMEC (capillary network)” value was “significantly prevented”. Also, in data set [2], the “Change of LDH release” value was −86%.

For `C[C@@H]1CC(=O)NN=C1c1ccc(NN=C(C#N)C#N)cc1` [Levosimendan], the “Effect on intoxication: total length” value in data set [3] is “no significant effect”.

Regarding `CN(C/C=C/C#CC(C)(C)C)Cc1cccc2ccccc12` [Terbinafine], in data set [1], the “Protective effect” value was “significantly prevented” and the “Spontaneous cell death in the culture medium” value is on record as “decrease spontaneous cell death”. For the same molecule, in data set [3], the “Effect on intoxication: total length” value is given as “no significant effect” and the “Prevention of Aβ1-42 intoxication in HBMEC (capillary network)” value is given as “significantly prevented”.

B1: BDNF: BDNF (50 ng/ml), positive control for neuroprotection (protein, UniProt P23560 19-247, looked up)
Neurotrophic factor BDNF …: APMKEANIRGQGGLAYPGVRTHGTLESVNGPKAGSRGLTSLADTFEHVIEELLDEDQKVRPNEENNKDADLYTSRVMLSSQVPLEPPLLFLLEEYKNYLDAANMSMRVRRHSDPARRGELSVCDSISEWVTAADKKTAVDMSGGTVTVLEKVPVSKGQLKQYFYETKCNPMGYTKEGCRGIDKRHWNSQCRTTQSYVRALTMDSKKRIGWRFIRIDTSCVCTLTIKRGR
For B1, the “Change of LDH release” value in data set [2] was −95%.

These data come from patent publication US11291670B2, “Therapeutic approaches for treating Alzheimer disease and related disorders through a modulation of angiogenesis” (PHARNEXT, priority 2008, dated 2022).
